Experimental findings from patent US9617256B2 (priority 2007, dated 2017) are described below.

In assay [1] the test system is AABA1060 (clinical isolate of Acinetobacter baumannii). Put plainly: MIC broth microdilution, AABA1060. Format: cell-based. The following applies: for MIC: Acinetobacter baumannii, read-out: MIC AABA1060. An outline of the steps:
(§1)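 Strains were grown overnight at 35° C. on Mueller-Hinton agar, suspended to 0.5 McFarland and diluted to a final 3×10^5–7×10^5 CFU/mL. They were then exposed to 2-fold serial drug dilutions in cation-adjusted Mueller-Hinton broth and incubated 18-24 hours at 35° C.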
On the technique in general: Broth dilution looks for growth in wells or tubes with falling amounts of substance.

For assay [2], the system named is APAE001 (ATCC27853). Put plainly: MIC broth microdilution, APAE001. In kind it is cell-based, P. aeruginosa. Particulars: for MIC: Pseudomonas aeruginosa, ATCC27853, read-out: MIC APAE001, APAE001 is ATCC27853. An outline of the steps:
as §1

For assay [3], the system named is APAE006 in the presence of 8 micrograms per milliliter of polymyxin B nonapeptide. Format: cell-based, P. aeruginosa. Particulars: in the presence of 8 micrograms per milliliter of polymyxin B nonapeptide. A digest of the protocol: (§2)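 Incubation: 35° C., ambient air, 18-24 h. Medium: cation-adjusted Mueller-Hinton broth with 2-fold serial dilutions of drug. Inoculum: 3×10^5–7×10^5 CFU/mL final, per CLSI microdilution method.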

Assay [4] has as its system ASAU001 (laboratory strain of S. aureus, ATCC29213). The assay can be described thus: MIC broth microdilution, ASAU001. Format: cell-based. The following applies: for MIC: Staphylococcus aureus, ATCC29213, read-out: MIC ASAU001. An outline of the steps: as §1
Assay [5] has as its system AECO001 (ATCC25922). The assay can be described thus: MIC broth microdilution, AECO001. Format: cell-based, E. coli. The following applies: for MIC: Escherichia coli, ATCC25922, read-out: MIC AECO001. A digest of the protocol:
as §1

In assay [6] the test system is AECO001 HSA AGP. Put plainly: MIC broth microdilution, AECO001 HSA AGP. In kind it is cell-based, E. coli. Particulars: for MIC: Escherichia coli. The protocol:
Bacterial isolates were cultivated from −70° C. frozen stocks by overnight passages at 35° C. in ambient air on Mueller-Hinton agar (Beckton Dickinson, Franklin Lakes, N.J.). Clinical isolates tested were obtained from various geographically diverse hospitals in the US and abroad (Focus Diagnostics, Herndon, Va. and JMI, North Liberty, Iowa). Quality control strains were from the American Type Culture Collection (ATCC; Rockville, Md.). Additional primary panel strains were generated using standard molecular biology techniques.
Minimum Inhibitory Concentrations (MICs) were determined by the broth microdilution method in accordance with the Clinical and Laboratory Standards Institute (CLSI) guidelines. In brief, organism suspensions were adjusted to a 0.5 McFarland standard to yield a final inoculum between 3×10^5 and 7×10^5 colony-forming units (CFU)/mL. Drug dilutions and inocula were made in sterile, cation adjusted Mueller-Hinton Broth (Beckton Dickinson). An inoculum volume of 100 μL was added to wells containing 100 μL of broth with 2-fold serial dilutions of drug. All inoculated microdilution trays were incubated in ambient air at 35° C. for 18-24 hours. […] Performance of the assay was monitored by the use of laboratory quality-control strains and levofloxacin, a compound with a defined MIC spectrum, in accordance with CLSI guidelines.
*AECO001 is ATCC25922, AECO063 is ATCC25922 bearing an acrAB mutation, APAE001 is ATCC27853, APAE006 is a strain of P. aeruginosa in which all efflux pumps are inactivated, APAE006+PMBN indicates MICs with the indicated strain in the presence of 8 micrograms per milliliter of polymyxin B nonapeptide, AABA1060 is a clinical isolate of Acinetobacter baumannii, ASAU001 is a laboratory strain of S. aureus (ATCC29213).

Assay [7] relates to APAE006 (strain of P. aeruginosa in which all efflux pumps are inactivated). The assay can be described thus: microbe, parasite or virus in culture. Particulars: for MIC: Pseudomonas aeruginosa, read-out: MIC APAE006, P. aeruginosa, all efflux pumps inactivated. Format: cell-based. An outline of the steps:
as §2

Assay [8] relates to AECO063 (ATCC25922 bearing an acrAB mutation). The assay can be described thus: microbe, parasite or virus in culture. In kind it is cell-based, E. coli. The following applies: for MIC: Escherichia coli, ATCC25922, read-out: MIC AECO063. A digest of the protocol:
as §1

Values after ≈ are worked out from the molar mass of the structure shown.

In the case of “3-Amino-N-hydroxy-3-methyl-2-[3-(4-morpholin-4-ylmethyl-phenyl)-propynoylamino]-butyramide [Example 129-1]”, in assay [1] (clinical isolate of Acinetobacter baumannii), the “MIC AABA1060” value is given as “B (MIC's of greater than 2.0 μg/mL to 16.0 μg/mL = B)”. Also, the “MIC APAE001” value in assay [2] (APAE001 is ATCC27853) was “A (MIC's of 2.0 μg/mL or less = A)”. Further, the “MIC APAE006 + PMBN” value in assay [3] is given as “A (MIC's of 2.0 μg/mL or less = A)”. Moreover, in assay [4] (S. aureus ATCC29213), the “MIC ASAU001” value is given as “D (MIC's of greater than 64.0 μg/mL = D)”. Further, the “MIC AECO001” value in assay [5] (AECO001 is ATCC25922) was “A (MIC's of 2.0 μg/mL or less = A)”. The “MIC AECO001 HSA AGP” value in assay [6] was “B (MIC's of greater than 2.0 μg/mL to 16.0 μg/mL = B)”. The “MIC APAE006” value in assay [7] (P. aeruginosa, all efflux pumps inactivated) is on record as “A (MIC's of 2.0 μg/mL or less = A)”. The “MIC AECO063” value in assay [8] (ATCC25922 bearing an acrAB mutation) was “A (MIC's of 2.0 μg/mL or less = A)”.
For the compound `CC(C)(O)[C@H](NC(=O)c1ccc(C#C/C=C/c2ccc(CN3CCOCC3)cc2)cc1)C(=O)NO` [Compound 97-2], the MIC in assay [1] was under 2 µg/mL; in assay [2] it was under 2 µg/mL; in assay [4], 16 to 64 µg/mL (≈ 33.5 to 134 µM); in assay [5] it was under 2 µg/mL; in assay [6] it was under 2 µg/mL; in assay [7] it was under 2 µg/mL. Besides, in assay [8], the MIC is under 2 µg/mL. The “MIC APAE006 + PMBN” value in assay [3] is “A (MIC's of 2.0 μg/mL or less = A)”.
With `C[C@@H](O)[C@H](NC(=O)c1ccc(/C=C/C#Cc2ccc(CN3CCOCC3)cc2)cc1)C(=O)NO` [Example 30-12a], the MIC is 2 to 16 µg/mL (≈ 4.31 to 34.5 µM) in assay [1]; under 2 µg/mL in assay [2]; over 64 µg/mL in assay [4]; under 2 µg/mL in assay [5]; under 2 µg/mL in assay [6]; under 2 µg/mL in assay [7]. Moreover, in assay [8], the MIC was under 2 µg/mL. For the same compound, the “MIC APAE006 + PMBN” value in assay [3] is given as “A (MIC's of 2.0 μg/mL or less = A)”.
Regarding `C[C@@H](O)[C@H](NC(=O)c1ccc(/C=C\C#Cc2ccc(CN3CCOCC3)cc2)cc1)C(=O)NO` [Example 30-12b], the MIC is 16 to 64 µg/mL (≈ 34.5 to 138 µM) in assay [1]; 2 to 16 µg/mL (≈ 4.31 to 34.5 µM) in assay [2]; over 64 µg/mL in assay [4]; 2 to 16 µg/mL (≈ 4.31 to 34.5 µM) in assay [5]; 16 to 64 µg/mL (≈ 34.5 to 138 µM) in assay [6]; under 2 µg/mL in assay [7]. Further, in assay [8], the MIC was under 2 µg/mL. Also, the “MIC APAE006 + PMBN” value in assay [3] is “A (MIC's of 2.0 μg/mL or less = A)”.
For `C[C@@H](O)[C@H](NC(=O)c1ccc(C2CCN(c3ccc(CN4CCOCC4)cc3)CC2)cc1)C(=O)NO` [Example 41-5, N-((1S,2R)-2-Hydroxy-1-hydroxycarbamoyl-propyl)-4-[1-(4-morpholin-4-ylmethyl-phenyl)-piperidin-4-yl]-benzamide], the MIC was over 64 µg/mL in assay [1]; 16 to 64 µg/mL (≈ 32.2 to 129 µM) in assay [2]; over 64 µg/mL in assay [4]; over 64 µg/mL in assay [5]; over 64 µg/mL in assay [6]; under 2 µg/mL in assay [7]. The MIC in assay [8] lay within 16 to 64 µg/mL (≈ 32.2 to 129 µM). The “MIC APAE006 + PMBN” value in assay [3] was “A (MIC's of 2.0 μg/mL or less = A)”.
In the case of `C[C@@H](O)[C@H](NC(=O)c1ccc(SCc2ccc(CN3CCOCC3)cc2)cc1)C(=O)NO` [Example 46-4, N-((1S,2R)-2-Hydroxy-1-hydroxycarbamoyl-propyl)-4-(4-morpholin-4-ylmethyl-benzylsulfanyl)-benzamide], the MIC in assay [1] is over 64 µg/mL; in assay [2], 16 to 64 µg/mL (≈ 34.8 to 139 µM); in assay [4] it was over 64 µg/mL; in assay [5], 16 to 64 µg/mL (≈ 34.8 to 139 µM); in assay [6] it was 16 to 64 µg/mL (≈ 34.8 to 139 µM); in assay [7] it was under 2 µg/mL. Besides, the MIC in assay [8] fell in the range of 2 to 16 µg/mL (≈ 4.35 to 34.8 µM).
As to `C[C@@H](O)[C@H](NC(=O)c1ccc(Sc2ccc(CN3CCOCC3)cc2)cc1)C(=O)NO` [Example 47-5, N-((1S,2R)-2-hydroxy-1-hydroxycarbamoyl-propyl)-4-(4-morpholin-4-ylmethyl-phenylsulfanyl)-benzamide], the MIC is over 64 µg/mL in assay [1]; over 64 µg/mL in assay [2]; over 64 µg/mL in assay [4]; over 64 µg/mL in assay [5]; over 64 µg/mL in assay [6]; 16 to 64 µg/mL (≈ 35.9 to 144 µM) in assay [7]. The MIC in assay [8] is over 64 µg/mL.
